Assay [1] relates to Bacillus subtilis BS01. Nature of the assay: microbe, parasite or virus in culture. As to conditions: BS01. As for the experimental part: (§1) All the synthesized cyclopeptides (7–19) and the desotamide A (1) isolated from S. scopuliridis SCSIO ZJ46 were evaluated for antibacterial activities against a series of Gram-positive pathogens including […] Staphylococcus aureus ATCC29213, Bacillus subtilis BS01, Micrococcus luteus ML01, Enterococcus faecalis ATCC29212; 3 drug-resistant poultry pathogens Staphylococcus simulans LJH13, Enterococcus gallinarum LJH11, Staphylococcus haemolyticus LJH9; 4 clinical methicillin-resistant Staphylococcus aureus (MRSA) shhs-E1, MRSA 16339, MRSA 745524, MRSA 16162. Their antibacterial activities against the […] pathogens Escherichia coli ATCC 13,124 and clinical drug-resistant Klebsiella pneumonia 15580 were also assayed.
(§2) Ampicillin, vancomycin and polymyxin were used as control. The maximum test concentrations for all the compounds were 128 μg/mL.

Assay [2] deals with Enterococcus faecalis ATCC 29212. Nature of the assay: microbe, parasite or virus in culture. The procedure: as §1, §2
Assay [3] concerns Enterococcus gallinarum LJH11. Nature of the assay: microbe, parasite or virus in culture. As for the experimental part:
as §1, §2

Assay [4] deals with MRSA 16162. The experiment in a line: microbe, parasite or virus in culture. As for the experimental part:
as §1, §2

The subject of assay [5] is MRSA 16339. The experiment in a line: microbe, parasite or virus in culture. As for the experimental part:
as §1, §2

In assay [6] the test system is MRSA 745524. The experiment in a line: microbe, parasite or virus in culture. As for the experimental part:
as §1, §2

Assay [7] has as its system Micrococcus luteus ML01. The experiment in a line: microbe, parasite or virus in culture. The settings on record: ML01. As for the experimental part: as §1, §2
Assay [8] relates to Staphylococcus aureus ATCC 29213. Nature of the assay: microbe, parasite or virus in culture. As for the experimental part:
as §1, §2

For assay [9], the system named is Staphylococcus haemolyticus LJH9. The experiment in a line: microbe, parasite or virus in culture. As for the experimental part:
as §1, §2

Assay [10] deals with Staphylococcus simulans LJH13. Nature of the assay: microbe, parasite or virus in culture. The procedure: as §1, §2
The subject of assay [11] is methicillin-resistant Staphylococcus aureus (MRSA) shhsE1. The experiment in a line: microbe, parasite or virus in culture. As for the experimental part:
as §1, §2

Assay [12] has as its system Gram-positive pathogens. As to conditions: for Gram positive antibacterial activity for desotamides (in words): Figure 2. As for the experimental part:
as §1, §2

For assay [13], the system named is Klebsiella pneumoniae 15580. As to conditions: 15580. The procedure:
as §1, §2

The mark [14] stands for this setting: Enterococcus faecalis, ATCC29212.
Where [15] appears, read: Enterococcus gallinarum, GALLINARUM
[16] abbreviates: Staphylococcus aureus, ATCC29213.
The mark [17] stands for this setting: Staphylococcus haemolyticus, LJH9.
Where [18] appears, read: clinical MRSA shhsE1, two-fold serial dilution, Mueller-Hinton broth, 96-well plate, CLSI-based, maximum test concentration 128 μg/mL.

≈ marks a conversion by molar mass, not a printed value. Like-named read-outs stand apart in the source and are kept apart here. Non-standard residues stand in square brackets, D forms with d. Residues, ends and D or L forms follow the SMILES beside them. aIle = CC[C@@H](C)[C@H](N)C(=O)O

Take `CC1(C)S[C@@H]2[C@H](NC(=O)[C@H](N)c3ccccc3)C(=O)N2[C@H]1C(=O)O` [Amp, ampicillin, reference compound]: the MIC in assay [1] (Bacillus subtilis) was under 0.0625 µg/mL; in assay [2] (setting [14]), 4 µg/mL (≈ 11.4 µM); in [3] (setting [15]), 2 µg/mL (≈ 5.72 µM); in assay [4] (Staphylococcus aureus, MRSA) it was 32 µg/mL (≈ 91.6 µM); in [5] (Staphylococcus aureus, MRSA), 64 µg/mL (≈ 183 µM); in [6] (Staphylococcus aureus, MRSA), 16 µg/mL (≈ 45.8 µM). For the same compound, the MIC in [7] (Micrococcus luteus) stood at 0.25 µg/mL (≈ 0.715 µM); in [8] (setting [16]), 1 µg/mL (≈ 2.86 µM); in assay [9] (setting [17]), 16 µg/mL (≈ 45.8 µM); in assay [10] (Staphylococcus simulans, LJH13) it was 0.25 µg/mL (≈ 0.715 µM); in assay [11] (Staphylococcus aureus, MRSA), 64 µg/mL (≈ 183 µM).
For `CC(C)C[C@@H]1NC(=O)[C@H](Cc2c[nH]c3ccccc23)NC(=O)[C@@H](CCCCN)NC(=O)[C@H](CC(N)=O)NC(=O)[C@H](C(C)C)NC(=O)[C@@H](CC(C)C)NC1=O` [Compound 9, Wollamide B2] (cyclo([dK]WL[dL]VN)), the MIC in [1] was determined as 16 µg/mL (≈ 21.2 µM); in assay [2] (ATCC 29212), 64 µg/mL (≈ 84.9 µM); in assay [3] (Enterococcus gallinarum LJH11, drug-resistant poultry pathogen, two-fold serial dilution, Mueller-Hinton broth, 96-well plate, CLSI-based, maximum test concentration 128 μg/mL) it was 128 µg/mL (≈ 170 µM); in assay [4] (16162), 32 µg/mL (≈ 42.4 µM); in [5] (16339) it was 32 µg/mL (≈ 42.4 µM); in assay [6] (745524) it was 32 µg/mL (≈ 42.4 µM). In addition, the MIC in assay [7] is 16 µg/mL (≈ 21.2 µM); in assay [8] (ATCC 29213), 32 µg/mL (≈ 42.4 µM); in [9] it was 32 µg/mL (≈ 42.4 µM); in assay [10], 16 µg/mL (≈ 21.2 µM); in assay [11] (setting [18]) it was 32 µg/mL (≈ 42.4 µM); in assay [13] it was over 128 µg/mL. For the same compound, the “fold increase of anti-Gram-positive activity compared to wollamide B (7)” value in [12] (Gram-positive bacteria) was 2–4 folds. The “Gram positive antibacterial activity for wollamides (in words)” value in assay [12] (summary, Figure 3) was 2–4-Fold more active than 7.
As to `CC[C@@H](C)[C@@H]1NC(=O)[C@H](CC(N)=O)NC(=O)[C@@H](CCCNC(=N)N)NC(=O)[C@H](Cc2c[nH]c3ccccc23)NC(=O)[C@H](CC(C)C)NC(=O)[C@@H](CC(C)C)NC1=O` [Compound 10, Desotamide A1] (cyclo(LW[dR]N[aIle][dL])), the MIC in [1], in assay [2] (ATCC 29212), in assay [3], in assay [4] (16162), in [5] (16339) and in assay [6] (745524) was over 128 µg/mL throughout. In addition, the MIC in assay [7] is 64 µg/mL (≈ 80.4 µM); in assay [8] (ATCC 29213), over 128 µg/mL; in assay [9], over 128 µg/mL; in assay [10], over 128 µg/mL; in assay [11] (methicillin-resistant shhsE1), over 128 µg/mL; in assay [13] it was over 128 µg/mL. The “Gram positive antibacterial activity for desotamides (in words)” value in assay [12] (summary) is “Inactive”.
Take `CC[C@@H](C)[C@@H]1NC(=O)[C@H](CC(N)=O)NC(=O)[C@@H](CCCCN)NC(=O)[C@H](Cc2c[nH]c3ccccc23)NC(=O)[C@H](CC(C)C)NC(=O)[C@@H](CC(C)C)NC1=O` [Compound 11, Desotamide A2] (cyclo(LW[dK]N[aIle][dL])): the MIC in assay [1], in [2] (ATCC 29212), in assay [3], in [4] (16162), in assay [5] (16339) and in assay [6] (745524) was over 128 µg/mL each time. The MIC in assay [7], in [8] (ATCC 29213), in assay [9], in [10], in [11] (methicillin-resistant shhsE1) and in assay [13] was over 128 µg/mL throughout. For the same compound, the “Gram positive antibacterial activity for desotamides (in words)” value in assay [12] (summary) is reported as “Inactive”.
On to `CC[C@@H](C)[C@@H]1NC(=O)[C@H](CC(N)=O)NC(=O)[C@@H](Cc2c[nH]cn2)NC(=O)[C@H](Cc2c[nH]c3ccccc23)NC(=O)[C@H](CC(C)C)NC(=O)[C@@H](CC(C)C)NC1=O` [Compound 12, Desotamide A3] (cyclo(LW[dH]N[aIle][dL])), for which the MIC in assay [1], in assay [2] (ATCC 29212), in assay [3], in assay [4] (16162), in assay [5] (16339) and in [6] (745524) was over 128 µg/mL throughout. Moreover, the MIC in assay [7], in [8] (ATCC 29213), in [9], in assay [10], in assay [11] (methicillin-resistant shhsE1) and in assay [13] was over 128 µg/mL in each case. Moreover, the “Gram positive antibacterial activity for desotamides (in words)” value in assay [12] (summary) is listed as “Inactive”.
For the compound `CC[C@H](C)[C@@H]1NC(=O)[C@H](CC(N)=O)NC(=O)[C@@H](Cc2c[nH]cn2)NC(=O)[C@H](Cc2c[nH]c3ccccc23)NC(=O)[C@H](CC(C)C)NC(=O)[C@@H](CC(C)C)NC1=O` [Compound 14, Desotamide A5] (cyclo(I[dL]LW[dH]N)), the MIC in assay [1] worked out at 64 µg/mL (≈ 82.4 µM); in assay [2] (ATCC 29212), 64 µg/mL (≈ 82.4 µM); in [3] it was 128 µg/mL (≈ 165 µM); in assay [4] (16162), 64 µg/mL (≈ 82.4 µM); in assay [5] (16339), 64 µg/mL (≈ 82.4 µM); in assay [6] (745524) it was 64 µg/mL (≈ 82.4 µM). Also, the MIC in [7] was 64 µg/mL (≈ 82.4 µM); in [8] (ATCC 29213) it was 64 µg/mL (≈ 82.4 µM); in assay [9], 64 µg/mL (≈ 82.4 µM); in assay [10], 64 µg/mL (≈ 82.4 µM); in assay [11] (methicillin-resistant shhsE1) it was 64 µg/mL (≈ 82.4 µM); in [13], over 128 µg/mL. Further, the “fold less potent MIC value compared to 1” value in [12] (Gram-positive bacteria, generally) is 2 fold. In addition, the “Gram positive antibacterial activity for desotamides (in words)” value in [12] (summary) is 2-Fold less active than 1.
For the compound `CC(C)C[C@@H]1NC(=O)[C@H](CC(N)=O)NC(=O)CNC(=O)[C@H](Cc2c[nH]c3ccccc23)NC(=O)[C@H](CC(C)C)NC(=O)[C@@H](CC(C)C)NC1=O` [Compound 16, Desotamide A7] (cyclo(NL[dL]LWG)), the MIC in assay [1], in assay [2] (ATCC 29212), in assay [3], in assay [4] (16162), in assay [5] (16339) and in assay [6] (745524) was over 128 µg/mL each time. Also, the MIC in assay [7], in assay [8] (ATCC 29213), in assay [9], in [10], in [11] (setting [18]) and in [13] was over 128 µg/mL throughout. In [12] (series of Gram-positive pathogens including MRSA, summary of Table 1), the “MIC values against Gram-positive pathogens (summary over the panel)” value was over 128 µg/mL. In addition, the “Gram positive antibacterial activity for desotamides (in words)” value in [12] (summary) was “Inactive”.
Turning to `CC(C)C[C@@H]1NC(=O)[C@H](Cc2c[nH]c3ccccc23)NC(=O)[C@@H](CCCCN)NC(=O)[C@H](CC(N)=O)NC(=O)[C@H](CC(C)C)NC(=O)[C@@H](CC(C)C)NC1=O` [Compound 17, Desotamide A8] (cyclo([dK]WL[dL]LN)), the MIC is 32 µg/mL (≈ 41.7 µM) in [1]; 128 µg/mL (≈ 167 µM) in assay [2] (ATCC 29212); over 128 µg/mL in assay [3]; 64 µg/mL (≈ 83.3 µM) in [4] (16162); 64 µg/mL (≈ 83.3 µM) in assay [5] (16339); 32 µg/mL (≈ 41.7 µM) in [6] (745524). The MIC in assay [7] is 16 µg/mL (≈ 20.8 µM); in assay [8] (ATCC 29213), 32 µg/mL (≈ 41.7 µM); in [9], 64 µg/mL (≈ 83.3 µM); in [10] it was 32 µg/mL (≈ 41.7 µM); in [11] (setting [18]) it was 64 µg/mL (≈ 83.3 µM); in assay [13], over 128 µg/mL. In addition, the “Gram positive antibacterial activity for desotamides (in words)” value in assay [12] (summary) is “Slightly less active than 1”.
Turning to `CN[C@H](CC(C)C)C(=O)N[C@H]1C(=O)N[C@@H](CC(N)=O)C(=O)N[C@H]2C(=O)N[C@H]3C(=O)N[C@H](C(=O)N[C@H](C(=O)O)c4cc(O)cc(O)c4-c4cc3ccc4O)[C@H](O)c3ccc(c(Cl)c3)Oc3cc2cc(c3O[C@@H]2O[C@H](CO)[C@@H](O)[C@H](O)[C@H]2O[C@H]2C[C@](C)(N)[C@H](O)[C@H](C)O2)Oc2ccc(cc2Cl)[C@H]1O` [Van, vancomycin, reference compound], the MIC in [1] (Bacillus subtilis) was 0.125 µg/mL (≈ 0.0863 µM); in [2] (setting [14]), 4 µg/mL (≈ 2.76 µM); in assay [3] (setting [15]), 8 µg/mL (≈ 5.52 µM); in assay [4] (Staphylococcus aureus, MRSA), 0.5 µg/mL (≈ 0.345 µM); in [5] (Staphylococcus aureus, MRSA), 0.25 µg/mL (≈ 0.173 µM); in assay [6] (Staphylococcus aureus, MRSA), 0.5 µg/mL (≈ 0.345 µM). For the same compound, the MIC in assay [7] (Micrococcus luteus) stood at 0.25 µg/mL (≈ 0.173 µM); in [8] (setting [16]) it was 0.5 µg/mL (≈ 0.345 µM); in assay [9] (setting [17]) it was 2 µg/mL (≈ 1.38 µM); in assay [10] (Staphylococcus simulans, LJH13) it was 0.25 µg/mL (≈ 0.173 µM); in [11] (Staphylococcus aureus, MRSA), 0.5 µg/mL (≈ 0.345 µM).

Values taken from paper PMC8225045, “Chemical Synthesis and Structure-Activity Relationship Study Yield Desotamide a Analogues with Improved Antibacterial Activity” (Marine Drugs, 2021).
